# Results as given in patent US7662852B2, “Compounds and preparations having antiviral effect” (Lead Chemical Co., Ltd., priority 2003, dated 2010).
# Columns and labels:
# [1] = tested on: HIV-1 IIIB; settings: for Anti-HIV Activity EC50: MT-4 cell infected with T-cell tropic strain HIV-1 IIIB, MOI 0.01, 5 days, MTT; for Safety Index S.I. CC50/EC50 / anti-HIV activity in vitro (in words): MT-4 cell, HIV-1 IIIB
# Method: (§1) For this experiment, human T-cell leukemia virus I (HTLV-I) infected T cell strain, MT-4 cell and T cell leukemia cell strain, MOLT-4 (clone No. 8) cell, HIV-1 continuous infection cell, MOLT-4/IIIB cell were used. The cell was cultured in RPMI-1640 medium (SIGMA) supplemented with 10% inactivated fetal calf plasma (FCS) (MOREGATE, Australia), 100 μg/ml streptomycin and 100 U/ml penicillin G (SIGMA) under a condition of 5% CO2 and 37° C. Subculture was performed every three days by controlling the density to 30×10^4 cells/ml.
# HIV-1 IIIB was prepared from the supernatant of MOLT-4/IIIB cell.
# MOLT-4/IIIB cell was controlled to a density of 30×10^4 cells/ml and then the culture was started. The cultured liquid was collected three days later, and centrifuged at 3000 rpm for 10 minutes at 4° C. […] These supernatants were passed through 0.45 μm filter. The virus stocks were frozen and stored at −80° C. The amount of virus was adjusted depending on an amount of p24.
# • 1) in vitro activity: A phorbol derivative was dissolved in an amount of 1.0 mg in 1.0 ml of DMSO to obtain a concentrated solution.
# (§2) The anti-HIV activity of each sample to be tested was evaluated by measuring inhibition activity against cytopathogenicity induced by HIV-1 according to MTTassay. The assay was performed in a triplicate mode, and anti-HIV activity and cytotoxicity were measured simultaneously.
# (§3) 96-well plate was used, 10% FCS/RPMI-1640 medium was added in inner 60 wells in an amount of 100 μl/well, and in outer 36 wells in an amount of 200 μl/well in order to prevent evaporation.
# (§4) The samples to be tested that were adjusted with RPMI-1640 medium were added in an amount of 25 μl/well in the first lane of the inner 60 wells, and 5-fold stepwise dilution series were prepared by manipulating pipette. In addition, in the last lane, no sample to be tested was added and regarded as control. MT-4 cell suspended in 30×10^4 cells/ml was prepared in two flasks, and the cells in one flask were infected with HIV-1 IIIB in a multiplicity of infection (MOI) of 0.01. The infected or non-infected MT-4 cells were immediately added to samples to be tested in an amount of 100 μl/ml, and cultured under a condition of 5% CO2 and 37° C.
# 5 days later, the viability of cells was measured based on MTT method by use of Titertek Multiskan.
# [2] = tested on: MT-4 cell; settings: non-infected MT-4 cell, 5 days, MTT
# Method: as §1, §2, §3, §4
# 5 days later, the viability of cells was measured based on MTT method by use of Titertek Multiskan. MTT adjusted to 7.5 mg/ml with PBS (Ca++, Mg++*free phosphate-buffered saline) was added in an amount of 20 μl/well, and cultured under a condition of 5% CO2 and 37° C., 150 μl of the cultured supernatant was removed and then 100 μl of cytolysis solution (5% (v/v)TritonX-100/acid isopropanol) was added and stirred on a plate mixer for 30 minutes.
# The absorbance (reference wavelength: 690 nm) was determined with a plate reader at 540 nm. […] Further, ratio of CC50 to EC50, that is, selective index (SI=CC50/EC50) was calculated.
# [3] = tested on: HIV-1 JRCSF; settings: NPB-11 1 ng/ml, PBMC infected with HIV-1 JRCSF, 7 days
# Method: JRCSF was obtained by culturing 293T cell transfected with 15 μg of virus DNA and collecting the cultured liquid two days later. These supernatants were passed through 0.45 μm filter. The virus stocks were frozen and stored at −80° C. The amount of virus was adjusted depending on an amount of p24.
# The infection to peripheral blood mononuclear cells (PBMC) of JRCSF and the evaluation of the anti-HIV activity were performed as follows. 1×10^6 cells/ml of PBMC was inoculated with JRCSF having 20 ng of p24, and the cells were washed 2 hours later. Thereafter, the cells were cultured in a culture liquid containing an agent to be tested for 7 days, and the antiviral activity was detected by measuring p24.
# The anti-HIV effect was evaluated by determining the amount of p24 that is one of viral gap proteins and calculating its reduced amount.
# [4] = mouse plasma 37° C. 30 min / living organism
# Method: (§5) • 1) in vitro activity: A phorbol derivative was dissolved in an amount of 1.0 mg in 1.0 ml of DMSO to obtain a concentrated solution. A sample to be tested was prepared by diluting the concentrated solution with a saline or a phosphate buffer to a predetermined concentration. • 2) stability in blood: 1 ml of blood from the abdominal aorta of 6- to 7-week-old BALB/c male mouse was withdrawn in an injector in which 0.1 ml of 3.8% sodium citrate was contained, and centrifuged at 5000 rpm for 10 minutes to obtain a plasma. The plasma was added in a solution to be tested in a proportion of 9:1 to prepare a diluted solution to be tested in a predetermined concentration of 10-fold dilution. The diluted solution was incubated at 37° C. for 30 minutes to prepare a sample to be tested. • 3) in situ activity: the above-mentioned sample to be tested 1) was orally administered to 6- to 7-week-old BALB/c male mouse in a dose of 1 mg/kg, at 20, 40 and 60 minutes after the administration, blood was withdrawn from the abdominal aorta under light anesthetization similarly to those of the 2) above, and the plasma from the blood was used as a sample to be tested.
# [5] = 30 min
# Method: as §5
SMILES,Anti-HIV Activity EC50 [1],Safety Index S.I. CC50/EC50 [1],anti-HIV activity in vitro (in words) [1],Cytotoxicity CC50 [2] [µg/mL],amount of viral protein p24 (antiviral effect) [3],Biological Stability [4],"Heat Stability 56° C., 30′ [5]"
CCCCCCCCCC(=O)OC12C(OC(=O)CC)C(C)C3(O)C(C=C(CO)CC4(O)C(=O)C(C)=CC43)C1C2(C)C (centres unmarked) [NPB-5],>1000 ng ng/ml,125<,lowered in the activity,125,,,
CCCCCCCCCC(=O)OC12C(OC(=O)CCC)C(C)C3(O)C(C=C(CO)CC4(O)C(=O)C(C)=CC43)C1C2(C)C (centres unmarked) [NPB-9],>1000 ng ng/ml,125<,lowered in the activity,125,,,
CCCCCCCCCC(=O)OC12C(OCOC)C(C)C3(O)C(C=C(CO)CC4(O)C(=O)C(C)=CC43)C1C2(C)C (centres unmarked) [NPB-11],1.7 ng/mL,4066,strong activity,6.9123,little viral protein was detected,,
CCCCCCCCCC(=O)OC12C(OC)C(C)C3(O)C(C=C(CO)CC4(O)C(=O)C(C)=CC43)C1C2(C)C (centres unmarked) [NPB-13],118.9 ng/mL,39,weak activity,4.6173,,Stable,
CCCCCCCCCC(=O)OC12C(OCC)C(C)C3(O)C(C=C(CO)CC4(O)C(=O)C(C)=CC43)C1C2(C)C (centres unmarked) [NPB-14],195.7 ng/mL,17,weak activity,3.3240,,Stable,unstable to heat compared with NPB-11
"CCCCCCCCCC(=O)OC12C(OC(C)=O)C(C)C3(O)C(C=C(CO)CC4(O)C(=O)C(C)=CC43)C1C2(C)C (centres unmarked) [Sample N-6, reference compound]",1.7 ng/mL,1920,extremely strong anti-HIV activity,3.2638,,,Stable
